From PubChem BioAssay (NCI)
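Dose response: 5 concentrations. Exposure: 48 h. Format: 96-well plates. Endpoint: linear interpolation; highest concentration if not reached. GI50 is the concentration that inhibits growth by half. TGI: total growth inhibition.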

Tests used:
Test in all cases: NCI tumour cell line growth inhibition, 48 h
[1] = system: SN12C renal
[2] = system: U251 CNS
[3] = system: SK-MEL-5 melanoma
[4] = system: SF-295 CNS
[5] = system: HS 578T breast
[6] = system: HOP-62 NSCLC
[7] = system: KM12 colon
[8] = system: BT-549 breast
[9] = system: HCC-2998 colon
[10] = system: TK-10 renal
[11] = system: MOLT-4 leukemia
[12] = system: SW-620 colon
[13] = system: NCI-H460 lung
[14] = system: SR leukemia
[15] = system: MCF7 breast
[16] = system: OVCAR-8 ovarian
[17] = system: HT29 colon
[18] = system: MDA-MB-435
[19] = system: RPMI-8226 leukemia
[20] = system: K-562 leukemia
[21] = system: NCI-H226 lung
[22] = system: MALME-3M melanoma
[23] = system: A498 renal
[24] = system: NCI-H23 lung
[25] = system: DU-145 prostate
[26] = system: UO-31 renal
[27] = system: CAKI-1 renal
[28] = system: 786-0 renal
[29] = system: COLO 205 colon
[30] = system: SNB-75 CNS
[31] = system: SK-OV-3 ovarian
[32] = system: MDA-MB-231 breast
[33] = system: A549 NSCLC
[34] = system: SK-MEL-28 melanoma
[35] = system: SK-MEL-2 melanoma
[36] = system: SF-539 CNS
[37] = system: T-47D breast
[38] = system: HCT-15 colon
[39] = system: LOX IMVI melanoma
[40] = system: OVCAR-3 ovarian
[41] = system: HCT-116 colon
[42] = system: SNB-19 CNS
[43] = system: M14 melanoma
[44] = system: PC-3 prostate
[45] = system: CCRF-CEM leukemia
[46] = system: ACHN renal
[47] = system: RXF 393 renal
[48] = system: NCI-H522 lung
[49] = system: UACC-257 melanoma
[50] = system: SF-268 CNS
[51] = system: HOP-92 NSCLC
[52] = system: IGROV1 ovarian
[53] = system: OVCAR-4 ovarian
[54] = system: OVCAR-5 ovarian
[55] = system: NCI/ADR-RES ovarian
[56] = system: UACC-62 melanoma
[57] = system: HL-60(TB) leukemia
[58] = system: EKVX NSCLC

CC(C)C[C@H](NC(=O)[C@@H](Cc1ccccc1)n1ccc(Nc2ccccc2)cc1=O)B(O)O
GI50 [1]: 730 nM
TGI [1]: 6940 nM
GI50 [2]: 417 nM
TGI [2]: 12200 nM
GI50 [3]: 321 nM
TGI [3]: 1140 nM
GI50 [4]: 285 nM
TGI [4]: 1220 nM
GI50 [5]: 361 nM
TGI [5]: 7060 nM
GI50 [6]: 1740 nM
TGI [6]: 7040 nM
GI50 [7]: 375 nM
TGI [7]: 1510 nM
GI50 [8]: 289 nM
TGI [8]: 2350 nM
GI50 [9]: 353 nM
TGI [9]: 1360 nM
GI50 [10]: 269 nM
TGI [10]: 980 nM
GI50 [11]: 247 nM
TGI [11]: > 100000 nM
GI50 [12]: 320 nM
TGI [12]: 14400 nM
GI50 [13]: 836 nM
TGI [13]: 8290 nM
GI50 [14]: 95.5 nM
TGI [14]: 2020 nM
GI50 [15]: 374 nM
TGI [15]: 14600 nM
GI50 [16]: 1880 nM
TGI [16]: 74600 nM
GI50 [17]: 342 nM
TGI [17]: 15500 nM
GI50 [18]: 155 nM
TGI [18]: 340 nM
GI50 [19]: 154 nM
TGI [19]: 3870 nM
GI50 [20]: 477 nM
TGI [20]: > 100000 nM
GI50 [21]: 164 nM
TGI [21]: 348 nM
GI50 [22]: 382 nM
TGI [22]: 2480 nM
GI50 [23]: 26.2 nM
TGI [23]: 360 nM
GI50 [24]: 835 nM
TGI [24]: 19400 nM
GI50 [25]: 783 nM
TGI [25]: 16700 nM
GI50 [26]: 561 nM
TGI [26]: 3130 nM
GI50 [27]: 403 nM
TGI [27]: 5450 nM
GI50 [28]: 582 nM
TGI [28]: 59000 nM
GI50 [29]: 545 nM
TGI [29]: 13100 nM
GI50 [30]: 300 nM
TGI [30]: 1830 nM
GI50 [31]: 653 nM
TGI [31]: 18800 nM
GI50 [32]: 595 nM
TGI [32]: 4370 nM
GI50 [33]: 525 nM
TGI [33]: 21600 nM
GI50 [34]: 349 nM
TGI [34]: 2980 nM
GI50 [35]: 316 nM
TGI [35]: 1590 nM
GI50 [36]: 174 nM
TGI [36]: 484 nM
GI50 [37]: 413 nM
TGI [37]: 3970 nM
GI50 [38]: 1110 nM
TGI [38]: 17000 nM
GI50 [39]: 151 nM
TGI [39]: 409 nM
GI50 [40]: 233 nM
TGI [40]: 561 nM
GI50 [41]: 257 nM
TGI [41]: 1230 nM
GI50 [42]: 714 nM
TGI [42]: > 100000 nM
GI50 [43]: 278 nM
TGI [43]: 1910 nM
GI50 [44]: 2250 nM
TGI [44]: 19600 nM
GI50 [45]: 340 nM
TGI [45]: 5980 nM
GI50 [46]: 358 nM
TGI [46]: > 100000 nM
GI50 [47]: 234 nM
TGI [47]: 564 nM
GI50 [48]: 242 nM
TGI [48]: 821 nM
GI50 [49]: 404 nM
TGI [49]: 2480 nM
GI50 [50]: 385 nM
TGI [50]: 2310 nM
GI50 [51]: 386 nM
TGI [51]: 2450 nM
GI50 [52]: 1330 nM
TGI [52]: 27900 nM
GI50 [53]: 1180 nM
TGI [53]: 21300 nM
GI50 [54]: 1700 nM
TGI [54]: 8340 nM
GI50 [55]: 13400 nM
TGI [55]: > 100000 nM
GI50 [56]: 333 nM
TGI [56]: 1410 nM

COc1ccc2nc3cc([N+](=O)[O-])ccc3c(NCCO)c2c1
GI50 [1]: 2510 nM
TGI [1]: 30800 nM
GI50 [2]: 1440 nM
GI50 [3]: 1610 nM
TGI [3]: 3260 nM
GI50 [4]: 3490 nM
TGI [4]: 15700 nM
GI50 [5]: 2940 nM
TGI [5]: 26200 nM
GI50 [6]: 2070 nM
TGI [6]: 5190 nM
GI50 [57]: 3030 nM
GI50 [7]: 2170 nM
TGI [7]: 6800 nM
GI50 [8]: 2880 nM
TGI [8]: 7020 nM
GI50 [11]: 1140 nM
TGI [11]: 6340 nM
GI50 [12]: 4080 nM
TGI [12]: 25700 nM
GI50 [58]: 24400 nM
GI50 [13]: 1660 nM
TGI [13]: 4900 nM
GI50 [14]: 3130 nM
GI50 [15]: 1110 nM
TGI [15]: 4170 nM
GI50 [16]: 3150 nM
TGI [16]: 18800 nM
GI50 [17]: 2340 nM
TGI [17]: 5130 nM
GI50 [18]: 2120 nM
TGI [18]: 5090 nM
GI50 [19]: 1390 nM
TGI [19]: 7160 nM
GI50 [20]: 1220 nM
TGI [20]: 3850 nM
GI50 [21]: 3670 nM
TGI [21]: 14700 nM
GI50 [23]: 12700 nM
TGI [23]: 32700 nM
GI50 [24]: 2680 nM
TGI [24]: 9590 nM
GI50 [25]: 3620 nM
GI50 [26]: 4750 nM
TGI [26]: 19000 nM
GI50 [27]: 10100 nM
TGI [27]: 30000 nM
GI50 [28]: 2500 nM
TGI [28]: 11400 nM
GI50 [29]: 3310 nM
TGI [29]: 17400 nM
GI50 [30]: 2920 nM
TGI [30]: 16100 nM
GI50 [31]: 2780 nM
TGI [31]: 14900 nM
GI50 [32]: 4400 nM
TGI [32]: 28100 nM
GI50 [33]: 4440 nM
TGI [33]: 23900 nM
GI50 [34]: 5410 nM
GI50 [36]: 3350 nM
TGI [36]: 13000 nM
GI50 [37]: 539 nM
TGI [37]: 4650 nM
GI50 [38]: 7240 nM
GI50 [39]: 2510 nM
TGI [39]: 9180 nM
GI50 [40]: 2410 nM
TGI [40]: 10200 nM
GI50 [41]: 2200 nM
TGI [41]: 10500 nM
GI50 [42]: 2960 nM
TGI [42]: 11500 nM
GI50 [43]: 1890 nM
TGI [43]: 4280 nM
TGI [44]: 30000 nM
GI50 [45]: 2170 nM
TGI [45]: 13400 nM
GI50 [46]: 4870 nM
TGI [46]: 31700 nM
GI50 [48]: 1390 nM
TGI [48]: 2840 nM
GI50 [49]: 2610 nM
TGI [49]: 7680 nM
GI50 [50]: 1150 nM
TGI [50]: 11500 nM
GI50 [51]: 1860 nM
TGI [51]: 7020 nM
GI50 [52]: 3170 nM
TGI [52]: 13600 nM
GI50 [53]: 1770 nM
TGI [53]: 3990 nM
GI50 [54]: 5550 nM
TGI [54]: 28100 nM
GI50 [55]: 10000 nM
GI50 [56]: 1930 nM
TGI [56]: 5230 nM
